Experimental data reported in the supplement of paper PMC10307832.

Tests used:
Assay in all cases: relative viability (nuclei count vs DMSO), 5 days (fraction); higher = more cells survive
XMD8-85 + Phenformin = compound: CN1CCN(CC1)C2=CC(=C(C=C2)NC3=NC=C4C(=N3)N(C5=CC=CC=C5C(=O)N4C)C)OC [XMD8-85] + N=C(N)NC(=N)NCCc1ccccc1 [Phenformin] (partner 250 µM)
In short: (§1)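 Lung cancer cell lines, seeded in 1536-well plates, were treated the following day by pin tool with a single drug or with five library-drug doses (not always all listed) in √10 steps on top of a fixed anchor-drug dose. Cells were fixed and nuclei stained in one step after 5 days, and nuclei were counted. Relative viability is the nuclei count for treated wells divided by that for vehicle wells, reported as medians of duplicate plates.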

4EGI-1 + Trametinib = compound: O=C(O)C(Cc1ccccc1[N+](=O)[O-])=NNc1nc(-c2ccc(Cl)c(Cl)c2)cs1 (mixture of isomers) [4EGI-1] + CC(=O)Nc1cccc(-n2c(=O)n(C3CC3)c(=O)c3c(Nc4ccc(I)cc4F)n(C)c(=O)c(C)c32)c1 [Trametinib] (partner 0.02 µM)
In short: as §1

4EGI-1 + Pictilisib = compound: O=C(O)C(Cc1ccccc1[N+](=O)[O-])=NNc1nc(-c2ccc(Cl)c(Cl)c2)cs1 (mixture of isomers) [4EGI-1] + CS(=O)(=O)N1CCN(Cc2cc3nc(-c4cccc5[nH]ncc45)nc(N4CCOCC4)c3s2)CC1 [Pictilisib] (partner 1 µM)
In short: as §1

4EGI-1 + Vorinostat = compound: O=C(O)C(Cc1ccccc1[N+](=O)[O-])=NNc1nc(-c2ccc(Cl)c(Cl)c2)cs1 (mixture of isomers) [4EGI-1] + O=C(CCCCCCC(=O)Nc1ccccc1)NO [Vorinostat] (partner 1 µM)
In short: as §1

Cell Line | relative viability (XMD8-85 + Phenformin; first compound 0.08 µM) | relative viability (XMD8-85 + Phenformin; first compound 0.253 µM) | relative viability (XMD8-85 + Phenformin; first compound 0.8 µM) | relative viability (XMD8-85 + Phenformin; first compound 2.53 µM) | relative viability (XMD8-85 + Phenformin; first compound 8 µM) | relative viability (4EGI-1 + Trametinib; first compound 0.5 µM) | relative viability (4EGI-1 + Trametinib; first compound 1.581 µM) | relative viability (4EGI-1 + Trametinib; first compound 5 µM) | relative viability (4EGI-1 + Trametinib; first compound 15.81 µM) | relative viability (4EGI-1 + Trametinib; first compound 50 µM) | relative viability (4EGI-1 + Pictilisib; first compound 0.5 µM) | relative viability (4EGI-1 + Pictilisib; first compound 5 µM) | relative viability (4EGI-1 + Pictilisib; first compound 15.81 µM) | relative viability (4EGI-1 + Pictilisib; first compound 50 µM) | relative viability (4EGI-1 + Vorinostat; first compound 0.5 µM) | relative viability (4EGI-1 + Vorinostat; first compound 1.581 µM) | relative viability (4EGI-1 + Vorinostat; first compound 5 µM) | relative viability (4EGI-1 + Vorinostat; first compound 15.81 µM) | relative viability (4EGI-1 + Vorinostat; first compound 50 µM) | relative viability (4EGI-1 + Pictilisib; first compound 1.581 µM)
NCI-H838 | 0.528 | 0.553 | 0.604 | 0.617 | 0.283 | 0.694 | 0.483 | 0.512 | 0.506 | 0.141 | 0.527 | 0.435 | 0.362 | 0.173 | 0.724 | 0.732 | 0.738 | 0.605 | 0.263 | –
COR-L 105 | 0.406 | 0.445 | 0.453 | 0.432 | 0.248 | 0.462 | 0.444 | 0.44 | 0.401 | 0.394 | 0.464 | 0.447 | 0.342 | 0.325 | 0.823 | 0.672 | 0.777 | 0.699 | 0.592 | 0.356
HCC-366 | 0.598 | 0.611 | 0.617 | 0.63 | 0.649 | 0.454 | 0.272 | 0.429 | 0.262 | 0.0891 | 0.222 | 0.119 | 0.0976 | 0.0789 | 0.469 | 0.149 | 0.431 | 0.34 | 0.0704 | –
NCI-H650 | – | 0.44 | 0.439 | 0.436 | 0.306 | 1.07 | – | 1.02 | 0.984 | 0.833 | 1.13 | 1.09 | 0.969 | 0.723 | 0.528 | – | 0.472 | 0.488 | 0.296 | –
NCI-H1299 | – | – | – | – | – | – | – | – | – | – | 0.863 | 1.03 | 0.732 | 0.163 | – | – | – | – | – | 0.824
LCLC-97TM1 | 0.412 | 0.412 | 0.451 | 0.471 | 0.45 | 0.212 | – | 0.188 | 0.197 | 0.127 | 0.174 | 0.175 | 0.199 | 0.105 | 0.78 | – | 0.856 | 0.843 | 0.0947 | –
NCI-H1666 | 0.578 | 0.601 | 0.574 | 0.567 | 0.576 | 0.914 | 0.822 | 0.811 | 0.774 | 0.66 | 0.38 | 0.524 | 0.376 | 0.266 | 0.997 | 1.12 | 0.949 | 0.992 | 0.604 | 0.343
NCI-H1993 | 0.565 | 0.64 | 0.512 | 0.436 | 0.495 | 0.654 | 0.49 | 0.504 | 0.607 | 0.432 | 0.919 | 0.781 | 0.736 | 0.862 | 1.04 | 0.678 | 0.778 | 0.524 | 0.349 | 0.761
BEN | 0.275 | 0.266 | 0.267 | 0.306 | 0.258 | 1.32 | 1.05 | 1.18 | 0.976 | 0.901 | 0.594 | 0.667 | 0.51 | 0.46 | 0.63 | 0.599 | 0.589 | 0.557 | 0.442 | 0.656
